For series [1], the target named is T1, jack bean urease (Canavalia ensiformis, UniProt P07374). The settings on record: for Vmax (app): maximum rate at 20 µM of inhibitor concentration; for Mode of inhibition: urea 0.5-4.0 mM, inhibitor 0-20 µM; for % inhibition of urease: value in parentheses beside IC50, n = 3, concentration not given.
In series [2] the target is T1, jack bean urease. The series can be described thus: biochemical.
Description: Each tube received 400 µL of urea (20 mM) as substrate, which was then incubated for 10 min at the same temperature.
Each inhibitor’s binding mechanism was tested at various doses (0–20 µM) for kinetics investigations. […] Lineweaver Burk plots were drawn using GraphPad PRISM 7.0 to determine the values of Km (app), Vmax (app), and Ki (inhibition constant).
Series [3] deals with carrageenan-induced acute inflammation in mice. The series can be described thus: Carrageenan-induced paw edema anti-inflammatory study. It is filed as in vivo. The settings on record: 10 mg/kg intraperitoneally, n = 6. As for the experimental part: As previously mentioned in our study, carrageenan-induced acute inflammation in mice was used to measure the anti-inflammatory effect ([Ahmed et al., 2018b]). Six groups of mice were formed and each group comprised six mice, the mice fasted 16 h before of induction of inflammation by injecting the phlogistic agent (carrageenan). The right hind paw of each mouse was measured before and after the 100 µL injection of the carrageenan (1% in 0.9% saline). The test substances, standard medication (indomethacin), and control (0.9% saline) were administered intraperitoneally at 10 mg/kg body weight. For 3 h, and after the 1-h interval, the thickness (mm) of the right hind paw of each mouse was measured. The difference in thickness of paw edema of control and test substance was used to determine the percentage inhibition of inflammation by the formula given below. Percentage inhibition of inflammation=Ct−CocontrolCt−Cotreated/Ct−Cocontrol×100 (2)
Where Ct and Co are the right hind paw thickness after and before carrageenan injection.

The next series concerns the target T2, COX-2 enzyme (Homo sapiens, UniProt P35354).
T2 construct: purchased Cayman Chemical Company, United States Item No. 760151
T2 sequence (P35354 18-604): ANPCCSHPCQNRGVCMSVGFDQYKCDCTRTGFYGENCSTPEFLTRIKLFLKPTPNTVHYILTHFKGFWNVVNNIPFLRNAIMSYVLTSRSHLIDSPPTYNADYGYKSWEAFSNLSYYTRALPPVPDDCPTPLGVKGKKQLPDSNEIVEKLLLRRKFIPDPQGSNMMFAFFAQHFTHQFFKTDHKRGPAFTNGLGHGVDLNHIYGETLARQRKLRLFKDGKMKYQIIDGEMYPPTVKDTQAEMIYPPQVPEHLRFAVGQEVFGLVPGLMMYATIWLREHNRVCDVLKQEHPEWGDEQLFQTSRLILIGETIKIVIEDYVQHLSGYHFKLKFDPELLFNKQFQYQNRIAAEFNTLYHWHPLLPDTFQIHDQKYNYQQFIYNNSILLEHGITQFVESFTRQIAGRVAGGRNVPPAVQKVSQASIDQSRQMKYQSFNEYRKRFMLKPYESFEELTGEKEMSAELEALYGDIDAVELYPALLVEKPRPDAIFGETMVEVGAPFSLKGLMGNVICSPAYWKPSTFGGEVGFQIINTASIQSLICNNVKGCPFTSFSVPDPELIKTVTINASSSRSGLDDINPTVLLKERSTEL
Description: COX-2 inhibitory assay (Cayman kit). Format: biochemical. The settings on record: n = 3. As for the experimental part: For the initial activity assay, 150 µL buffer, 10 µL heme, and 10 µL COX-2 enzyme were mixed in a well whereas 110 µL buffer, 10 µL heme, 10 µL COX-2 enzyme, and 40 µL test inhibitor (10 µM) were mixed for inhibitory assay using 96 wells plate.

Molecules are shown by their SMILES. Where two headings read alike, the source gives them in different places.

T1 sequence (P07374 whole entry, looked up): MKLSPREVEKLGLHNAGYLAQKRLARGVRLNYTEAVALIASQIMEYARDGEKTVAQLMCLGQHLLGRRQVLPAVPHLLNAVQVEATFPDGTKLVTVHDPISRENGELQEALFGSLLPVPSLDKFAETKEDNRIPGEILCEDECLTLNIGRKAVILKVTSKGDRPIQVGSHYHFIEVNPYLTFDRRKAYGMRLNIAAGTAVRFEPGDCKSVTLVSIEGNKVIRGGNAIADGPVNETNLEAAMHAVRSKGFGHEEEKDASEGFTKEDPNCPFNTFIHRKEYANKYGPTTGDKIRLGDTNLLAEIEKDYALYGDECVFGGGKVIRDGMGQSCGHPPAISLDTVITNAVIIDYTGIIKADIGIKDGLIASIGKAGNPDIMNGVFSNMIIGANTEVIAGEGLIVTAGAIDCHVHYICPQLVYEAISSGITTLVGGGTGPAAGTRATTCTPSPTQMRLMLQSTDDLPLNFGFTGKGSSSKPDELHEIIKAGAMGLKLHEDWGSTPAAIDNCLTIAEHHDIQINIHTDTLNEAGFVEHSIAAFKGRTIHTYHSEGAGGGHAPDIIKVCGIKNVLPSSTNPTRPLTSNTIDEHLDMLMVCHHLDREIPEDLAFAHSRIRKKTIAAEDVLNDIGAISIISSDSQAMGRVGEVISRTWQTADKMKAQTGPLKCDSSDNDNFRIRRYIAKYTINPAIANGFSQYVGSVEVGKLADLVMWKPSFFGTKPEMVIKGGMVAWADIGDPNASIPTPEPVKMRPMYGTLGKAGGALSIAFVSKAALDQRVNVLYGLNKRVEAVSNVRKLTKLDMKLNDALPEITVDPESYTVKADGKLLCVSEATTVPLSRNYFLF

`COc1ccc2cc([C@H](C)C(=O)Nc3ccc(S(N)(=O)=O)cc3)ccc2c1` [Conjugate 3, (S)-2-(6-methoxynaphthalen-2-yl)-N-(4-sulfamoylphenyl)propanamide] came in with a melting point of 208 to 210 °C. The “Vmax (app)” value on jack bean urease [1] (Lineweaver Burk plot) was determined as 2.57 µM/min. Besides, on jack bean urease [1], the Mode of inhibition result is on record as “Competitive” and the “% inhibition of urease” value came to 89.4%. Moreover, at jack bean urease [2], the IC50 stood at 6.69 ± 0.11 µM and the Ki came out at 2.4 µM.

For `COc1ccc2cc([C@H](C)C(=O)Nc3ccc(S(=O)(=O)NC(=N)N)cc3)ccc2c1` [Conjugate 10, (S)-N-(4-(N-carbamimidoylsulfamoyl)phenyl)-2-(6-methoxynaphthalen-2-yl)propanamide], at jack bean urease [1] (Lineweaver Burk plot), the “Vmax (app)” value is reported as 1.96 µM/min. At jack bean urease [1], the Mode of inhibition entry is recorded as “Competitive” and the “% inhibition of urease” value turned out to be 89.1%. On jack bean urease [2], this molecule yielded an IC50 of 5.06 ± 0.29 µM and a Ki of 3.56 µM.

As for `COc1ccc2cc([C@H](C)C(=O)Nc3ccc(S(=O)(=O)Nc4nccc(C)n4)cc3)ccc2c1` [Conjugate 7, (S)-2-(6-methoxynaphthalen-2-yl)-N-(4-(N-(4-methylpyrimidin-2-yl)sulfamoyl)phenyl)propanamide], the melting point was 160 to 162 °C. In addition, the “Vmax (app)” value at jack bean urease [1] (Lineweaver Burk plot) was 0.602 µM/min. Also, at jack bean urease [1], the Mode of inhibition result was “Mixed” and the “% inhibition of urease” value is on record as 84.3%. Moreover, on jack bean urease [2], the half-maximal inhibitory concentration (IC50) was 16.57 ± 0.14 µM and the Ki was determined as 9.98 µM.

`COc1ccc2cc([C@H](C)C(=O)Nc3ccc(S(=O)(=O)Nc4onc(C)c4C)cc3)ccc2c1` [Conjugate 4, (S)-N-(4-(N-(3,4-dimethylisoxazol-5-yl)sulfamoyl)phenyl)-2-(6-methoxynaphthalen-2-yl)propanamide]: the melting point was 241 to 243 °C. Besides, in series [3] (0 h), the “Paw edema in mm (mean ± SEM)” value is given as 1.80 ± 0.04 (−) mm. In series [3] (1 h), the “% inhibition of paw edema” value is 8.2% and the “Paw edema in mm (mean ± SEM)” value came to 2.72 ± 0.12 mm. Further, in series [3] (2 h), the “% inhibition of paw edema” value came to 45.5% and the “Paw edema in mm (mean ± SEM)” value is listed as 2.53 ± 0.09 mm. In series [3] (3 h), the “% inhibition of paw edema” value is given as 78.0% and the “Paw edema in mm (mean ± SEM)” value is reported as 2.36 ± 0.11 mm. Further, the “% inhibition of urease” value on jack bean urease [1] was determined as 94.1%. The molecule further yielded an inhibition at 10 µM at COX-2 enzyme of 64.5%. On jack bean urease [2], this molecule had an IC50 of 25.63 ± 0.24 µM.

Molecule `COc1ccc2cc([C@H](C)C(=O)Nc3ccc(S(=O)(=O)Nc4ncccn4)cc3)ccc2c1` [Conjugate 6, (S)-2-(6-methoxynaphthalen-2-yl)-N-(4-(N-(pyrimidin-2-yl)sulfamoyl)phenyl)propanamide] registered a melting point of 163 to 165 °C. In addition, the “Vmax (app)” value at jack bean urease [1] (Lineweaver Burk plot) is on record as 0.363 µM/min. On jack bean urease [1], the Mode of inhibition entry is “Mixed” and the “% inhibition of urease” value is 90.3%. On jack bean urease [2], this molecule had an IC50 of 4.08 ± 0.1 µM and a Ki of 5.58 µM.

`COc1ccc2cc([C@H](C)C(=O)Nc3ccc(S(=O)(=O)Nc4cc(C)on4)cc3)ccc2c1` [Conjugate 8, (S)-2-(6-methoxynaphthalen-2-yl)-N-(4-(N-(5-methylisoxazol-3-yl)sulfamoyl)phenyl)propanamide] had a melting point of 178 to 180 °C. Moreover, the “Paw edema in mm (mean ± SEM)” value in series [3] (0 h) was 1.80 ± 0.08 (−) mm. Also, in series [3] (1 h), the “% inhibition of paw edema” value was 24.1% and the “Paw edema in mm (mean ± SEM)” value amounted to 2.56 ± 0.14 mm. Further, in series [3] (2 h), the “% inhibition of paw edema” value is listed as 47.0% and the “Paw edema in mm (mean ± SEM)” value came out at 2.51 ± 0.08 mm. In addition, in series [3] (3 h), the “% inhibition of paw edema” value is 82.8% and the “Paw edema in mm (mean ± SEM)” value is recorded as 2.23 ± 0.12 mm. Further, on jack bean urease [1], the “% inhibition of urease” value stood at 87.6%. For the same molecule, the inhibition at 10 µM on COX-2 enzyme was 75.4%. On jack bean urease [2], this molecule had an IC50 of 29.64 ± 0.27 µM.

As for `COc1ccc2cc([C@H](C)C(=O)Nc3ccc(S(=O)(=O)NC(C)=O)cc3)ccc2c1` [Conjugate 9, (S)-N-(4-(N-acetylsulfamoyl)phenyl)-2-(6-methoxynaphthalen-2-yl)propanamide], the melting point is 138 to 140 °C. For the same molecule, the “Vmax (app)” value at jack bean urease [1] (Lineweaver Burk plot) was determined as 0.66 µM/min. Further, on jack bean urease [1], the Mode of inhibition entry was “Mixed” and the “% inhibition of urease” value was found to be 85.7%. For the same molecule, on jack bean urease [2], the half-maximal inhibitory concentration (IC50) was found to be 20.32 ± 0.12 µM and the Ki was 2.61 µM.

`COc1ccc2c(c1)c(CC(=O)O)c(C)n2C(=O)c1ccc(Cl)cc1` [Indomethacin, reference compound]: the “Paw edema in mm (mean ± SEM)” value in series [3] (0 h) was 1.81 ± 0.05 (−) mm; in series [3] (1 h) it was 2.61 ± 0.14 mm; in series [3] (2 h) it was 2.41 ± 0.09 mm; in series [3] (3 h), 2.14 ± 0.09 mm. For the same molecule, the “% inhibition of paw edema” value is recorded as 20.1% in series [3] (1 h), 55.2% in series [3] (2 h) and 86.8% in series [3] (3 h).

As for `COc1ccc2cc([C@H](C)C(=O)O)ccc2c1` [Naproxen, reference compound], the “Paw edema in mm (mean ± SEM)” value in series [3] (0 h) is recorded as 1.81 ± 0.06 (−) mm; in series [3] (1 h) it was 2.60 ± 0.13 mm; in series [3] (2 h), 2.53 ± 0.11 mm; in series [3] (3 h), 2.41 ± 0.12 mm. The “% inhibition of paw edema” value in series [3] (1 h) amounted to 21.1%; in series [3] (2 h) it was 46.3%; in series [3] (3 h), 76.1%.

With `COc1ccc2cc([C@H](C)C(=O)Nc3ccc(S(=O)(=O)Nc4nccs4)cc3)ccc2c1` [Conjugate 5, (S)-2-(6-methoxynaphthalen-2-yl)-N-(4-(N-(thiazol-2-yl)sulfamoyl)phenyl)propanamide], the melting point fell in the range of 184 to 185 °C. For the same molecule, in series [3] (0 h), the “Paw edema in mm (mean ± SEM)” value is reported as 1.81 ± 0.05 (−) mm. Further, in series [3] (1 h), the “% inhibition of paw edema” value was found to be 9.1% and the “Paw edema in mm (mean ± SEM)” value turned out to be 2.71 ± 0.09 mm. Further, in series [3] (2 h), the “% inhibition of paw edema” value was determined as 43.3% and the “Paw edema in mm (mean ± SEM)” value is on record as 2.57 ± 0.11 mm. In addition, in series [3] (3 h), the “% inhibition of paw edema” value is given as 75.3% and the “Paw edema in mm (mean ± SEM)” value is listed as 2.43 ± 0.08 mm. The “Vmax (app)” value at jack bean urease [1] (Lineweaver Burk plot) came out at 0.714 µM/min. Besides, at jack bean urease [1], the Mode of inhibition entry is listed as “Competitive” and the “% inhibition of urease” value worked out at 88.9%. Besides, the inhibition at 10 µM against COX-2 enzyme came to 61.3%. For the same molecule, at jack bean urease [2], the IC50 was 5.82 ± 0.28 µM and the Ki worked out at 5.05 µM.

Turning to `NC(N)=S` [Thiourea, reference compound], the “Vmax (app)” value at jack bean urease [1] (Lineweaver Burk plot) was determined as 18.61 µM/min. Further, at jack bean urease [1] (read-out: IC50 (µM), mean ± SEM, jack bean urease, n = 3, thiourea as standard), the IC50 was found to be 22.6 ± 0.23 µM. In addition, the inhibitory constant (Ki) at jack bean urease [1] (read-out: Ki (inhibition constant), secondary Lineweaver Burk plot) turned out to be 18.2 µM. The Km at jack bean urease [1] (read-out: Km (app), Michaelis constant at 20 µM of inhibitor concentration, Lineweaver Burk plot) came to 2180 µM. For the same molecule, on jack bean urease [1], the Mode of inhibition result is “Competitive” and the “% inhibition of urease” value stood at 92.3%.

Values taken from paper PMC10434765, “Exploring the potential of propanamide-sulfonamide based drug conjugates as dual inhibitors of urease and cyclooxygenase-2: biological and their in silico studies” (Frontiers in Chemistry, 2023).
